# pIC50: −log10 of the molar value.
# Key:
# [1] = Inhibition of human recombinant cyclin D2-CDK4
# [2] = target: Cyclin-dependent kinase 2 and 4 (CDK2 and CDK4) (Homo sapiens) (UniProt P11802+P24941); experiment: Selectivity for CDK4 over CDK2; assay type: protein assay
# [3] = target: Cyclin-dependent kinase 2/cyclin A (Homo sapiens, UniProt P24941); experiment: Inhibition of human recombinant cyclin A-CDK2; assay type: protein-complex assay
# Homo sapiens = organism: Homo sapiens; experiment: Selectivity for CDK4 over CDK1
# [4] = target: Cyclin-dependent kinase 1/cyclin B (Homo sapiens, UniProt P06493); experiment: Inhibition of human recombinant cyclin B-CDK1; assay type: protein-complex assay
# [5] = target: cAMP-dependent protein kinase (PKA) (Homo sapiens, UniProt P22694+P17612+P22612); experiment: Inhibition of PKA ser/thr kinase.; assay type: protein assay
# Protein kinase C (PKC) = experiment: Inhibition of PKC ser/thr kinase.; assay type: protein assay, Homo sapiens
# CaM kinase II = CaM kinase II (Homo sapiens, UniProt Q13557+Q13555+Q13554+Q9UQM7); experiment: Inhibition of calcium/calmodulin-dependent protein kinase type II; assay type: protein assay
# [6] = target: Platelet-derived growth factor receptor beta (Homo sapiens, UniProt P09619); experiment: Inhibition of PDGFRbeta tyrosine kinase.
# [7] = target: Vascular endothelial growth factor receptor 1 (Homo sapiens, UniProt P17948); experiment: Inhibition of Flt-1 tyrosine kinase.
# [8] = target: T1, Tyrosine-protein kinase ZAP-70 (Homo sapiens, UniProt P43403); experiment: Inhibition of Zap70 tyrosine kinase.
# T1 sequence (P43403 whole entry): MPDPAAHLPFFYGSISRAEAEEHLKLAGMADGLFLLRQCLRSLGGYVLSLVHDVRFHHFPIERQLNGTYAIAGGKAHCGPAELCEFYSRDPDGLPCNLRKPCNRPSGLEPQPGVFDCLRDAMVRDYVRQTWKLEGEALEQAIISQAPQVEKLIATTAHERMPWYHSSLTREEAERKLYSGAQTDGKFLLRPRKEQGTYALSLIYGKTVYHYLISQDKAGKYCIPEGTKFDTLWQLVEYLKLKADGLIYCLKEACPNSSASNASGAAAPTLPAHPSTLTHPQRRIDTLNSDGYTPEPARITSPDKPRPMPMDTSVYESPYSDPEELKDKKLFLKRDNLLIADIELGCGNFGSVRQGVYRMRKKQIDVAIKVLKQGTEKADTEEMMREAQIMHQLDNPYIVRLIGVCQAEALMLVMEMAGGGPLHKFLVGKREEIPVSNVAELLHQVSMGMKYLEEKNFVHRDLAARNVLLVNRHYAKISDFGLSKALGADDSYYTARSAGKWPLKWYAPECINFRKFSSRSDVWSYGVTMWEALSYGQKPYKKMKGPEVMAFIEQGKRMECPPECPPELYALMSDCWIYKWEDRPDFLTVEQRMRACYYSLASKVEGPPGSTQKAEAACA
# [9] = target: Dual specificity mitogen-activated protein kinase kinase 1 (Homo sapiens, UniProt Q02750); experiment: Inhibition of mitogen activated protein kinase kinase 1
# [10] = target: Tyrosine-protein kinase Lck (Homo sapiens, UniProt P06239); experiment: Inhibition of Lck tyrosine kinase.
# [11] = target: Fibroblast growth factor receptor 1 (Homo sapiens, UniProt P11362); experiment: Inhibition of fibroblast growth factor receptor 1
# [12] = Inhibition of cyclin D2-CDK4 ser/thr kinase.; set-up: species or system Homo sapiens
# CDK6/cyclin D1 = CDK6/cyclin D1 (Homo sapiens, UniProt Q00534); experiment: Inhibition of cyclin D1-CDK6 ser/thr kinase.; assay type: protein-complex assay
# [13] = target: Proto-oncogene tyrosine-protein kinase Src (Homo sapiens, UniProt P12931); experiment: Inhibition of Src tyrosine kinase.
# [14] = target: Mitogen-activated protein kinase 3 (Homo sapiens, UniProt P27361); experiment: Inhibition of ERK1 ser/thr kinase.
# [15] = target: RAC-alpha serine/threonine-protein kinase (Homo sapiens, UniProt P31749); experiment: Inhibition of PKBalpha (Akt1) ser/thr kinase.
# [16] = target: Mitogen-activated protein kinase 14 (Homo sapiens, UniProt Q16539); experiment: Inhibition of p38-alpha ser/thr kinase.
# Chain of Mitogen-activated protein kinase 14 (Q16539 whole entry): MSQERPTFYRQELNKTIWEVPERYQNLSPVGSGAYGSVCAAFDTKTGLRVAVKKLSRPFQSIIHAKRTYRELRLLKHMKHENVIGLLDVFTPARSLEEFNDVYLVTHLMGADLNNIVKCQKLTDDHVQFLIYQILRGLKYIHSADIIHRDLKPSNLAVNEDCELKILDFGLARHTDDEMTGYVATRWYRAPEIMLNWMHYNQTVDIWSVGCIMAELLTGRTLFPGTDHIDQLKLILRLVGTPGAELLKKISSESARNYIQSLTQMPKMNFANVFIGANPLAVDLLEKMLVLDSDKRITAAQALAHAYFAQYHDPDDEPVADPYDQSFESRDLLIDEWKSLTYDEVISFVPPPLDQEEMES
# Chain of RAC-alpha serine/threonine-protein kinase (P31749 whole entry): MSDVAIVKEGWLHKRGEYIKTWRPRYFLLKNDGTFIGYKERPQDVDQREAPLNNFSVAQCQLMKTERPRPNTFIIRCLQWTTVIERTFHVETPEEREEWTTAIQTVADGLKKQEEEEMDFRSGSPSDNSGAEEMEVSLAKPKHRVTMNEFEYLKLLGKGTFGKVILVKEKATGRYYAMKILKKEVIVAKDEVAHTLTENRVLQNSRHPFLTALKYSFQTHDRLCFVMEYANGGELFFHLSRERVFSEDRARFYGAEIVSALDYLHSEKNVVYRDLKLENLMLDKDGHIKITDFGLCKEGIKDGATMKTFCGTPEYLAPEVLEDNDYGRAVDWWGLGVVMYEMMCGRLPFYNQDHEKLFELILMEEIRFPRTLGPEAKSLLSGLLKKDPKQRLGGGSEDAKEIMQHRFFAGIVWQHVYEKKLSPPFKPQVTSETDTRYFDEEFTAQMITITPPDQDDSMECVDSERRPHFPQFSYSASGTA
# Chain of Tyrosine-protein kinase Lck (P06239 whole entry): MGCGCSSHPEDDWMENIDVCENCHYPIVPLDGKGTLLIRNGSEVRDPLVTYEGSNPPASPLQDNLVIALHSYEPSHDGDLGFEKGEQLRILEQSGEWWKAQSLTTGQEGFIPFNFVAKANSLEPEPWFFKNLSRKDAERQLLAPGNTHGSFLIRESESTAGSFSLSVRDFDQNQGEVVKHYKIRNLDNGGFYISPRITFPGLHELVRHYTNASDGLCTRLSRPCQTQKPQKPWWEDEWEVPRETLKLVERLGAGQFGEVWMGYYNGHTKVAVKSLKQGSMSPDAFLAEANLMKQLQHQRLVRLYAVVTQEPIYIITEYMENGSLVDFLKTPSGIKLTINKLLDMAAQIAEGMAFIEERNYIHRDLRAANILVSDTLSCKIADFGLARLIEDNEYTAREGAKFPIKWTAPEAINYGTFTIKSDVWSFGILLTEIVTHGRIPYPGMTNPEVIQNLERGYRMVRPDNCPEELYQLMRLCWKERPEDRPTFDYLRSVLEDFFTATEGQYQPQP
# Chain of Proto-oncogene tyrosine-protein kinase Src (P12931 2-536 limits assumed): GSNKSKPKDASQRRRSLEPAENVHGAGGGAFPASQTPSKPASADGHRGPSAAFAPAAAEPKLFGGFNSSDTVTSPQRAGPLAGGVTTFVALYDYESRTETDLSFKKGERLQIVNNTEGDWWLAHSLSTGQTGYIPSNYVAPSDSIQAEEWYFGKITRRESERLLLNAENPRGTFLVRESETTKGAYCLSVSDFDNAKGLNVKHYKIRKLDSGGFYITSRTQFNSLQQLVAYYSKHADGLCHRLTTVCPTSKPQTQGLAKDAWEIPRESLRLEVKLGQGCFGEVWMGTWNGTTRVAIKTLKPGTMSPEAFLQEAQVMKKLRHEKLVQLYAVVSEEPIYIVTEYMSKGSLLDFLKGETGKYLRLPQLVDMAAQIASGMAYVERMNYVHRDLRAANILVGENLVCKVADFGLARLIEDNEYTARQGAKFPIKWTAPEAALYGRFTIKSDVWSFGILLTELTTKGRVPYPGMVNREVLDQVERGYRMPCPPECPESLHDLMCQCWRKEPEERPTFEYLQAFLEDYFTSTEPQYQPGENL
# Chain of Fibroblast growth factor receptor 1 (P11362 whole entry): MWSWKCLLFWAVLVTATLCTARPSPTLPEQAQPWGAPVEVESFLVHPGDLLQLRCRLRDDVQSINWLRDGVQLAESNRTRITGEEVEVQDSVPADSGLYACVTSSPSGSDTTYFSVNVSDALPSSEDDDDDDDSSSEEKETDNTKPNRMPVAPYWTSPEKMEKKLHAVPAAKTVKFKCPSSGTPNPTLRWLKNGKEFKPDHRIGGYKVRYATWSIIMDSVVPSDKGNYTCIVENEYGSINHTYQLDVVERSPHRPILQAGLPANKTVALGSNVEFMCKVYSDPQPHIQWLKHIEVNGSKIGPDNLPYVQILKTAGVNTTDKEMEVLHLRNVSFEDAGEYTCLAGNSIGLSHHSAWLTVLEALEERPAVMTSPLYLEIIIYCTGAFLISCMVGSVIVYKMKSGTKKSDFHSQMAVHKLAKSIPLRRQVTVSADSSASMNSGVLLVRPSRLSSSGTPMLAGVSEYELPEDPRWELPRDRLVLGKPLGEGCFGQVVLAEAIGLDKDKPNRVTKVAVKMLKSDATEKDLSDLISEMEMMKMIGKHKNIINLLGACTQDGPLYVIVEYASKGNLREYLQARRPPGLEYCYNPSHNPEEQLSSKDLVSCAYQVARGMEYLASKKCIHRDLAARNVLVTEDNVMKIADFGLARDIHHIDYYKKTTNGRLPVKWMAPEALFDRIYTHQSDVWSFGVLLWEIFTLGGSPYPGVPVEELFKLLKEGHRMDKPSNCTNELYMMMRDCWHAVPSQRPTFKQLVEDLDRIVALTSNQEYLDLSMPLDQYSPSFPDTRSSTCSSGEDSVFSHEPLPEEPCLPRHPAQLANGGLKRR
# Chain of Dual specificity mitogen-activated protein kinase kinase 1 (Q02750 whole entry): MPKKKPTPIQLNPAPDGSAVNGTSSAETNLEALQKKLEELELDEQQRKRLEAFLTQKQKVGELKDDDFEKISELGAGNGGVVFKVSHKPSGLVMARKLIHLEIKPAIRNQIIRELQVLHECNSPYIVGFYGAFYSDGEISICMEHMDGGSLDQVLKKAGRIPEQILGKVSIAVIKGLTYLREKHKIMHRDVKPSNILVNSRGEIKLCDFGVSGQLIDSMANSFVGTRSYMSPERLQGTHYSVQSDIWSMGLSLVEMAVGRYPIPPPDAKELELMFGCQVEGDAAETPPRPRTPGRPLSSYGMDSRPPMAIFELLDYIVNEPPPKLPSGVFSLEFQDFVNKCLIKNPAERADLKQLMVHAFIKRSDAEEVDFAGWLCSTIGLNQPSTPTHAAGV
# Chain of Vascular endothelial growth factor receptor 1 (P17948 whole entry): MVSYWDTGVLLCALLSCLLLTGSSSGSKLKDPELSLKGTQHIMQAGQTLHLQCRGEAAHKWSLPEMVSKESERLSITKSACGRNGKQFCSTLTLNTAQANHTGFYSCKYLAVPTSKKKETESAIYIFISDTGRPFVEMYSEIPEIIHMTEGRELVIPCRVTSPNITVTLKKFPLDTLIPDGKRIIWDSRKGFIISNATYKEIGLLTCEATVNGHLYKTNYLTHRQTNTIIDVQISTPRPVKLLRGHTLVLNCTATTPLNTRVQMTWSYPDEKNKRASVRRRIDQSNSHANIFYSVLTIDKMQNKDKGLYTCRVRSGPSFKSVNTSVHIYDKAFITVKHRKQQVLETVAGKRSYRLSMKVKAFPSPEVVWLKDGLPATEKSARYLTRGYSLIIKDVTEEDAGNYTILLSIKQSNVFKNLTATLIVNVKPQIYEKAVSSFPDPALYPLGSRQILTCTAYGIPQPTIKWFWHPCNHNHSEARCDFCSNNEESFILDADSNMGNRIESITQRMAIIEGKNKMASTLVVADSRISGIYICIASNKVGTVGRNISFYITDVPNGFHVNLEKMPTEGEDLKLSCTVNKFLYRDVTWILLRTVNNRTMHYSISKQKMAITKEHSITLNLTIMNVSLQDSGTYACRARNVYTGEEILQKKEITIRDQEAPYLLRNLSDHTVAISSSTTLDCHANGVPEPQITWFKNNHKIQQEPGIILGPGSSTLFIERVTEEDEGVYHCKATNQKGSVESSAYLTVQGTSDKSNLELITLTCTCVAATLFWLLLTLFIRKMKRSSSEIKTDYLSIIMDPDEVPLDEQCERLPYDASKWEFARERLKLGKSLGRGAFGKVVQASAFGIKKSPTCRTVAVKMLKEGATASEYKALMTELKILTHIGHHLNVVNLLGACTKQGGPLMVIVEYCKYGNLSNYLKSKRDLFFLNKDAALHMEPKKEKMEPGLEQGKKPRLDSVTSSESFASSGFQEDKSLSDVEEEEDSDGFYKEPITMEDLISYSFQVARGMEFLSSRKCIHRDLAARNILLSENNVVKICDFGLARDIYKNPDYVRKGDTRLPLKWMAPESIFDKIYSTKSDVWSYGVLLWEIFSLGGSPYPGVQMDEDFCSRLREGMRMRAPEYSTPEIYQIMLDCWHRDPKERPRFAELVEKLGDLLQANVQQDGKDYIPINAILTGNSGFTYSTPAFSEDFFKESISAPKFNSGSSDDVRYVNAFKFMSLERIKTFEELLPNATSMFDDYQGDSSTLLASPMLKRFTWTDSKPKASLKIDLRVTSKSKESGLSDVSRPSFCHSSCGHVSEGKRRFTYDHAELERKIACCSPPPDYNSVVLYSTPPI
# Chain of Mitogen-activated protein kinase 3 (P27361 whole entry): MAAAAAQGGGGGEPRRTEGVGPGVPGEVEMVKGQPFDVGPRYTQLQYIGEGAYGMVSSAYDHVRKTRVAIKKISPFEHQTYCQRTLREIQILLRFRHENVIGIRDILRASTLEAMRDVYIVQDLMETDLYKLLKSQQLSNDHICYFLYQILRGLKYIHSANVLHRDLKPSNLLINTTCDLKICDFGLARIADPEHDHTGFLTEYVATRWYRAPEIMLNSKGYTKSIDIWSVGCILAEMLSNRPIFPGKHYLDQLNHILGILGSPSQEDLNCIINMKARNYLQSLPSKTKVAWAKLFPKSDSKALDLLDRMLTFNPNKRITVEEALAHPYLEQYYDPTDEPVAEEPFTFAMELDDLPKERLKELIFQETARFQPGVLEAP
SMILES,pIC50 [1],Selectivity [2],pIC50 [3],further results
CCCNCc1cc(NC(=O)Nc2cccc3c2C2CCCN2C3=O)[nH]n1 (stereo unspecified),6.80,75,4.92,–
CC(C)NCc1cc(NC(=O)Nc2cccc3c2C2CCCN2C3=O)[nH]n1 (stereo unspecified),6.89,130,4.77,–
O=C(Nc1ccccn1)Nc1cccc2c1[C@H]1CCCN1C2=O,–,–,–,IC50 [5]: > 20 µM; IC50 (Protein kinase C (PKC)): > 20 µM; IC50 (CaM kinase II): > 10 µM; pIC50 [6]: 5.30; pIC50 [7]: 5.55; pIC50 [8]: < 5.00; pIC50 [9]: < 5.00; pIC50 [10]: 5.64; pIC50 [11]: 5.17; pIC50 [12]: 7.38; pIC50 (CDK6/cyclin D1): 7.15; pIC50 [13]: < 5.30; pIC50 [14]: < 5.00; pIC50 [15]: < 5.00; pIC50 [16]: < 5.00
O=C(Nc1cc(CNC2CCCC2)n[nH]1)Nc1cccc2c1C1CCCN1C2=O (stereo unspecified),–,–,5.01,–
CNCc1cc(NC(=O)Nc2cccc3c2C2CCCN2C3=O)[nH]n1 (stereo unspecified),6.54,48,4.85,–
CC(C)(C)NCc1cc(NC(=O)Nc2cccc3c2C2CCCN2C3=O)[nH]n1 (stereo unspecified),7.25,180,5.01,–

# The next lines start with results.
pIC50 [1],Selectivity [2],pIC50 [3],SMILES,further results
6.68,120,–,O=C(Nc1cc([C@@H]2CCCN2)[nH]n1)Nc1cccc2c1[C@@H]1CCCN1C2=O,Selectivity (Homo sapiens): 130
7.68,–,–,O=C(Nc1cc[nH]n1)Nc1cccc2c1[C@H]1CCCN1C2=O,–
7.54,–,–,O=C(Nc1cc[nH]n1)Nc1cccc2c1[C@@H]1CCCN1C2=O,–
6.33,16,5.12,O=C(Nc1cc(CN2CCCC2)[nH]n1)Nc1cccc2c1C1CCCN1C2=O (stereo unspecified),–
–,–,4.60,O=C(Nc1cc([C@@H]2CCCN2)n[nH]1)Nc1cccc2c1[C@@H]1CCCN1C2=O,pIC50 [4]: 4.55
7.19,150,–,O=C(Nc1cc(CNC2CCCC2)[nH]n1)Nc1cccc2c1C1CCCN1C2=O (stereo unspecified),–
6.60,48,4.92,O=C(Nc1cc(CN2CCCCC2)[nH]n1)Nc1cccc2c1C1CCCN1C2=O (stereo unspecified),–
6.14,27,4.70,O=C(Nc1cc(CNC2CCCCC2)[nH]n1)Nc1cccc2c1C1CCCN1C2=O (stereo unspecified),–
6.66,110,4.60,O=C(Nc1cc([C@@H]2CCCN2)[nH]n1)Nc1cccc2c1[C@H]1CCCN1C2=O,pIC50 [4]: 4.51; Selectivity (Homo sapiens): 140
